pEC50, pIC50: −log10 of the molar value.
Legend:
[1] = target: T1, recombinant human CB2 receptor (Homo sapiens, UniProt P34972); test: CB2 receptor functional assay (cAMP); assay type: cell-based; details: CB2 receptor expressed in CHO cells
T1 construct: expressed in transfected cells
Experimental: (§1) The functional activation of CB1 receptor is based on recombinant human CB1 receptor expressed in CHO cells (Felder et al, Mol. Pharmacol. 48: 443-450, 1995). To determine the agonist activity or inverse agonist activity of any test compound, 50 μL of CB1-CHO cell suspension are mixed with test compound and 70 uL assay buffer containing 0.34 mM 3-isobutyl-1-methylxanthine and 5.1 μM of forskolin in 96-well plates. The assay buffer is comprised of Earle's Balanced Salt Solution supplemented with 5 mM MgCl2, 1 mM glutamine, 10 mM HEPES, and 1 mg/mL bovine serum albumin. The mixture is incubated at room temperature for 30 minutes, and terminated by adding 30 μl/well of 0.5M HCl. The total intracellular cAMP level is quantitated using the New England Nuclear Flashplate and cAMP radioimmunoassay kit.
(§2) To determine the antagonist activity of test compound, the reaction mixture also contains 0.5 nM of the agonist CP55940, and the reversal of the CP55940 effect is quantitated. Alternatively, a series of dose response curves for CP55940 is performed with increasing concentration of the test compound in each of the dose response curves.
The functional assay for the CB2 receptor is done similarly with recombinant human CB2 receptor expressed in CHO cells.

[2] = target: T2, recombinant human CB1 receptor (Homo sapiens, UniProt P21554); test: Cannabinoid Receptor-1 (CB1) functional activity assay (cAMP); assay type: cell-based; details: CB1-CHO cells, forskolin-stimulated cAMP
T2 construct: expressed in transfected cells
Experimental: as §1, §2

[3] = target: T1, recombinant human CB2 receptor; test: CB2 receptor binding assay; details: receptor expressed in CHO cells
Experimental: (§3) Binding affinity determination is based on recombinant human CB1 receptor expressed in Chinese Hamster Ovary (CHO) cells (Felder et al, Mol. Pharmacol. 48: 443-450, 1995). Total assay volume is 250 μL (240 μL CB1 receptor membrane solution plus 5 μL test compound solution plus 5 μL [3H]CP-55940 solution). Final concentration of [3H]CP-55940 is 0.6 nM. Binding buffer contains 50 mM Tris-HCl, pH7.4, 2.5 mM EDTA, 5 mM MgCl2, 0.5 mg/mL fatty acid free bovine serum albumin and protease inhibitors (Cat#P8340, from Sigma). To initiate the binding reaction, 5 μL of radioligand solution is added, the mixture is incubated with gentle shaking on a shaker for 1.5 hours at 30° C. The binding is terminated by using 96-well harvester and filtering through GF/C filter presoaked in 0.05% polyethylenimine. The bound radiolabel is quantitated using scintillation counter. Apparent binding affinities for various compounds are calculated from IC50 values (DeBlasi et al., Trends Pharmacol Sci 10: 227-229, 1989).
The binding assay for CB2 receptor is done similarly with recombinant human CB2 receptor expressed in CHO cells.

[4] = target: T2, recombinant human CB1 receptor; test: Cannabinoid Receptor-1 (CB1) binding assay; details: [3H]CP-55940 0.6 nM, receptor expressed in CHO cells
Experimental: as §3

T1 sequence (P34972 whole entry): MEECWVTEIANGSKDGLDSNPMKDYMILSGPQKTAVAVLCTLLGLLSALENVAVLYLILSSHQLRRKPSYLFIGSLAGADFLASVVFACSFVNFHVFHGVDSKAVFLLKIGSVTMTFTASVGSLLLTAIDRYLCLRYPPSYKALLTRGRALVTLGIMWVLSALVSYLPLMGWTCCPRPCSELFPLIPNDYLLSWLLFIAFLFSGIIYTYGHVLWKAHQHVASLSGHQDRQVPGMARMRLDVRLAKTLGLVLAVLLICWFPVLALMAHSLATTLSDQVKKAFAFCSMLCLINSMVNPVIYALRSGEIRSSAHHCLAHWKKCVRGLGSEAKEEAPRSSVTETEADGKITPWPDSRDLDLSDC
T2 sequence (P21554 whole entry): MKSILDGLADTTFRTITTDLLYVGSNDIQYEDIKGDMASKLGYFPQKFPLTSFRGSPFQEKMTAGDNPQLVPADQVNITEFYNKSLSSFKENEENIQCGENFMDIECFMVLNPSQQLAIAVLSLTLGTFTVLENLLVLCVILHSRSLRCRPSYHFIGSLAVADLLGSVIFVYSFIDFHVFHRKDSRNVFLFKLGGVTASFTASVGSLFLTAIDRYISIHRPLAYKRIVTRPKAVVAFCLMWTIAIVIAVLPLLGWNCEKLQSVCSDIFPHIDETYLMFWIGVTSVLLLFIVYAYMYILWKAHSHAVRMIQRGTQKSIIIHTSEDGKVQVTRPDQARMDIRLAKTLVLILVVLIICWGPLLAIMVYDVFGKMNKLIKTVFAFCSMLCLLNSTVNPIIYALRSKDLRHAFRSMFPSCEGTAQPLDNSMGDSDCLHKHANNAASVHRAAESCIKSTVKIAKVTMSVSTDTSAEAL

## C[C@H](NC(=O)C(C)(C)OC(=O)c1c(Cl)cccc1Cl)[C@@H](Cc1ccc(Cl)cc1)c1cccc(C#N)c1 [Example 30, N-(3-(4-chlorophenyl)-2(S)-(3-cyanophenyl)-1(S)-methylpropyl)-2-(2,6-dichloro-benzoyloxy)-2-methyl-propanamide]
[1]
  % max in the CB2 functional assay: −192 % max
  pEC50: 6.79
[2]
  % max in the CB1 functional assay: −157 % max
  pEC50: 8.73
[3]
  pIC50: 6.09
[4]
  pIC50: 8.60

— US20120135975A1, “Substituted Esters as Cannabinoid-1 Receptor Modulators” (MERCK & CO., INC., priority 2006, published 2012)
